Read-outs that look alike come from different tables or passages of the source.
Key:
primary human T-cells [1] = test: Proliferation assay after 5 days (CellTiter-Glo, CD3 stimulation; PBS counter screen); type: cell-based; conditions: CD3 stimulation; for Emax / Emax proliferation (% activation): 5 days, normalized to reference compound A1 as stimulator control = 100%, DMSO neutral control; for Emax: read-out: Emax proliferation (% activation); for EC50: primary human T-cells, CellTiter-Glo after 5 days, EC50 of fitted sigmoidal curve, read-out: Tcell Proliferation CD3 EC50
Method in brief: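 ATP-based luminescence (CellTiter-Glo 2.0, room temperature) measured proliferation 5 days after compound addition to CD3-stimulated or unstimulated primary human T-cells. Flags marked compounds that lowered viability or activated unstimulated cells.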

primary human T-cells [2] = tested on: primary human T-cells

SMILES | Emax (primary human T-cells [1]; Homo sapiens, T-cell, 120 h) [%] | EC50 (primary human T-cells [1]; Homo sapiens, T-cell, 120 h) [nM] | EC50 (primary human T-cells [2]) [nM] | Emax proliferation (% activation) (primary human T-cells [1]) | EC50 (primary human T-cells [1]) [nM] | EC50 (primary human T-cells [1]; T-cell, 120 h) [nM]
COCCN1CC(c2nnc(-c3cc4c(cc3F)S(=O)(=O)C[C@H](N)C(=O)N4Cc3ccc(Cl)cc3)o2)CC(F)(F)C1 (stereo partly drawn) [Example 151, (3R)-3-amino-5-[(4-chlorophenyl)methyl]-7-[5-[5,5-difluoro-1-(2-methoxyethyl)-3-piperidyl]-1,3,4-oxadiazol-2-yl]-8-fluoro-1,1-dioxo-2,3-dihydro-1λ^6,5-benzothiazepin-4-one] | 112 | 45.9 | 93.4 |  |  | 
CC1(C)COCCN1c1nnc(-c2cc3c(cc2F)S(=O)(=O)C[C@H](N)C(=O)N3Cc2ccc(Cl)cc2)o1 [Example 491, (3R)-3-amino-5-[(4-chlorophenyl)methyl]-7-[5-(3,3-dimethylmorpholin-4-yl)-1,3,4-oxadiazol-2-yl]-8-fluoro-1,1-dioxo-2,3-dihydro-1λ^6,5-benzothiazepin-4-one] | 56 | 142 | 443 |  |  | 
CC(C)(C)c1nnc(-c2ccc3c(c2)N(Cc2ccc(OC4CCCCC4)cc2)C(=O)[C@@H](N)CS3(=O)=O)o1 [Example 434, (3R)-3-amino-7-(5-tert-butyl-1,3,4-oxadiazol-2-yl)-5-[[4-(cyclohexoxy)phenyl]methyl]-1,1-dioxo-2,3-dihydro-1λ^6,5-benzothiazepin-4-one] | 130 |  | 6160 |  |  | 
COC(F)(c1nnc(-c2ccc3c(c2)N(Cc2ccc(OC(F)(F)F)cc2)C(=O)[C@@H](N)C[S+]3[O-])o1)C(F)(F)F (single isomer, unassigned; epimer a) [Example 425] |  | 1880 | > 10000 | 81 |  | 
N[C@H]1CS(=O)(=O)c2cc(F)c(-c3nnc(CC4CCOCC4)o3)cc2N(Cc2ccc(Cl)cc2)C1=O [Example 78, (3R)-3-Amino-5-[(4-chlorophenyl)methyl]-8-fluoro-1,1-dioxo-7-[5-(tetrahydropyran-4-ylmethyl)-1,3,4-oxadiazol-2-yl]-2,3-dihydro-1λ^6,5-benzothiazepin-4-one] | 86 | 1110 | 2350 |  |  | 
CC(C)(C)c1cn(-c2cc3c(cc2F)S(=O)(=O)C[C@H](N)C(=O)N3Cc2ccc(Cl)cc2)cn1 [Example 527] |  |  | 292 | 69 | 1280 | 
N[C@H]1CS(=O)(=O)c2ccc(-c3nnc(N4CCC(F)(F)CC4)o3)cc2N(Cc2ccc(Cl)cc2)C1=O [Example 396, (3R)-3-amino-5-[(4-chlorophenyl)methyl]-7-[5-(4,4-difluoro-1-piperidyl)-1,3,4-oxadiazol-2-yl]-1,1-dioxo-2,3-dihydro-1λ^6,5-benzothiazepin-4-one] | 87 | 526 | 937 |  |  | 
NC(CNc1nc(-c2cc3c(cc2F)S(=O)(=O)C[C@H](N)C(=O)N3Cc2ccc(Cl)cc2)no1)C(F)(F)F (stereo partly drawn) [Example 202, (3R)-3-amino-7-[5-[(2-amino-3,3,3-trifluoro-propyl)amino]-1,2,4-oxadiazol-3-yl]-5-[(4-chlorophenyl)methyl]-8-fluoro-1,1-dioxo-2,3-dihydro-1λ^6,5-benzothiazepin-4-one] | 57 | 1430 | 1300 |  |  | 
CN(C)C(=O)C(C)(C)c1nnc(-c2cc3c(cc2F)S(=O)(=O)C[C@H](N)C(=O)N3Cc2ccc(Cl)cc2)o1 [Example 125, N,N,2-trimethyl-2-[5-[(3R)-3-amino-5-[(4-chlorophenyl)methyl]-8-fluoro-1,1,4-trioxo-2,3-dihydro-1λ^6,5-benzothiazepin-7-yl]-1,3,4-oxadiazol-2-yl]propanamide] | 112 | 587 | 1440 |  |  | 
N[C@H]1CS(=O)(=O)c2ccc(-c3nnc(N4CC5(CCC5)C4)o3)cc2N(Cc2ccc(Cl)cc2)C1=O [Example 398, (3R)-3-amino-7-[5-(2-azaspiro[3.3]heptan-2-yl)-1,3,4-oxadiazol-2-yl]-5-[(4-chlorophenyl)methyl]-1,1-dioxo-2,3-dihydro-1λ^6,5-benzothiazepin-4-one] | 115 | 3480 | 879 |  |  | 
N[C@H]1CS(=O)(=O)c2cc(F)c(-c3noc(N4[C@@H]5CC[C@H]4COC5)n3)cc2N(Cc2ccc(Cl)cc2)C1=O [Example 200, (3R)-3-amino-5-[(4-chlorophenyl)methyl]-8-fluoro-1,1-dioxo-7-[5-[(1R,5S)-3-oxa-8-azabicyclo[3.2.1]octan-8-yl]-1,2,4-oxadiazol-3-yl]-2,3-dihydro-1λ^6,5-benzothiazepin-4-one] | 88 | 37.9 | 142 |  |  | 
CNCC(=O)N[C@H]1CS(=O)(=O)c2cc(F)c(-c3nnc(C(C)(C)C)o3)cc2N(Cc2ccc(Cl)cc2)C1=O [Example 265, N-[(3R)-7-(5-tert-butyl-1,3,4-oxadiazol-2-yl)-5-[(4-chlorophenyl)methyl]-8-fluoro-1,1,4-trioxo-2,3-dihydro-1λ^6,5-benzothiazepin-3-yl]-2-(methylamino)acetamide] | 143 | 884 | > 20000 |  |  | 
CC(C)(F)c1nnc(-c2cc3c(cc2F)S(=O)(=O)C[C@H](N)C(=O)N3Cc2ccc(Cl)cc2)o1 [Example 70, (3R)-3-Amino-5-[(4-chlorophenyl)methyl]-8-fluoro-7-[5-(1-fluoro-1-methyl-ethyl)-1,3,4-oxadiazol-2-yl]-1,1-dioxo-2,3-dihydro-1λ^6,5-benzothiazepin-4-one] | 255 | 214 | 74.6 |  |  | 
CN1CC(n2cc(-c3cc4c(cc3F)S(=O)(=O)C[C@H](N)C(=O)N4Cc3ccc(Cl)cc3)cn2)CC(F)(F)C1 (stereo partly drawn) [Example 281, (3R)-3-amino-5-[(4-chlorophenyl)methyl]-7-[1-(5,5-difluoro-1-methyl-3-piperidyl)pyrazol-4-yl]-8-fluoro-1,1-dioxo-2,3-dihydro-1λ^6,5-benzothiazepin-4-one] | 89 | 1040 | > 10000 |  |  | 
CCN1CCCC(Nc2nnc(-c3cc4c(cc3F)S(=O)(=O)C[C@H](N)C(=O)N4Cc3ccc(Cl)cc3)o2)C1 (stereo partly drawn) [Example 457, (3R)-3-amino-5-[(4-chlorophenyl)methyl]-7-[5-[(1-ethyl-3-piperidyl)amino]-1,3,4-oxadiazol-2-yl]-8-fluoro-1,1-dioxo-2,3-dihydro-1λ^6,5-benzothiazepin-4-one] | 50 | 1140 | 4880 |  |  | 
CC(C)(C)c1nnc(-c2cc3c(cc2F)S(=O)(=O)C[C@H](N)C(=O)N3Cc2ccc(S(C)(=O)=O)c(F)c2)o1 [Example 242, (3R)-3-amino-7-(5-tert-butyl-1,3,4-oxadiazol-2-yl)-8-fluoro-5-[(3-fluoro-4-methylsulfonyl-phenyl)methyl]-1,1-dioxo-2,3-dihydro-1λ^6,5-benzothiazepin-4-one] | 92 | 3400 | 4800 |  |  | 
CC(Nc1nnc(-c2cc3c(cc2F)S(=O)(=O)C[C@H](N)C(=O)N3Cc2ccc(Cl)cc2)o1)C(F)(F)F (stereo partly drawn) [Example 498, (3R)-3-amino-5-[(4-chlorophenyl)methyl]-8-fluoro-1,1-dioxo-7-[5-[(2,2,2-trifluoro-1-methyl-ethyl)amino]-1,3,4-oxadiazol-2-yl]-2,3-dihydro-1λ^6,5-benzothiazepin-4-one] | 103 |  | 724 |  |  | 1080
CN(C)c1nnc(-c2cc3c(cc2F)S(=O)(=O)C[C@H](N)C(=O)N3Cc2ccc(Cl)cc2)o1 [Example 465, (3R)-3-amino-5-[(4-chlorophenyl)methyl]-7-[5-(dimethylamino)-1,3,4-oxadiazol-2-yl]-8-fluoro-1,1-dioxo-2,3-dihydro-1λ^6,5-benzothiazepin-4-one] | 100 | 171 | 1170 |  |  | 
CC(C)(c1nnc(-c2cc3c(cc2F)S(=O)(=O)C[C@H](N)C(=O)N3Cc2ccc(Cl)cc2)o1)C(N)C(F)(F)F (stereo partly drawn) [Example 136, (3R)-3-amino-7-[5-(2-amino-3,3,3-trifluoro-1,1-dimethyl-propyl)-1,3,4-oxadiazol-2-yl]-5-[(4-chlorophenyl)methyl]-8-fluoro-1,1-dioxo-2,3-dihydro-1λ^6,5-benzothiazepin-4-one] | 99 | 114 | 187 |  |  | 
N[C@H]1CS(=O)(=O)c2cc(F)c(-c3nnc(NC45CC(F)(C4)C5)o3)cc2N(Cc2ccc(Cl)cc2)C1=O [Example 499, (3R)-3-amino-5-[(4-chlorophenyl)methyl]-8-fluoro-7-[5-[(3-fluoro-1-bicyclo[1.1.1]pentanyl)amino]-1,3,4-oxadiazol-2-yl]-1,1-dioxo-2,3-dihydro-1λ^6,5-benzothiazepin-4-one] | 68 | 768 | 2230 |  |  | 
CC(C)(C)c1nnc(-c2cc3c(cc2F)[S+]([O-])C[C@H](N)C(=O)N3Cc2ccc(OC(F)(F)F)cc2)o1 (some centres unmarked) [Example 453] |  |  | 178 | 136 | 444 | 
CC(C)(C)NC(=O)c1nnc(-c2cc3c(cc2F)S(=O)(=O)C[C@H](N)C(=O)N3Cc2ccc(Cl)cc2)o1 [Example 90, N-tert-butyl-5-[(3R)-3-amino-5-[(4-chlorophenyl)methyl]-8-fluoro-1,1,4-trioxo-2,3-dihydro-1λ^6,5-benzothiazepin-7-yl]-1,3,4-oxadiazole-2-carboxamide] | 96 | 2340 | 819 |  |  | 

Source: US20240368150A1 (Hoffmann-La Roche Inc., priority 2021, published 2024)
